Values of other authors as cited in patent publication US6517814B2, “Macrocyclic chelants useful for metallopharmaceuticals” (Bristol-Myers Squibb Pharma Company, priority 2001, dated 2003).
Read-outs that look alike come from different tables or passages of the source.

Row | half-life (decomposes rapidly under acidic conditions) | half-life (in 0.1 M HCl) | Compound
1 | ~0.0167 h | – | O=C([O-])CN(CCN(CC(=O)[O-])CC(=O)[O-])CCN(CC(=O)[O-])CC(=O)[O-].[Gd+3] [[Gd(DTPA]^2−]
2 | – | 60.2 h | O=C([O-])CN1CCN(CC(=O)[O-])CCN(CC(=O)[O-])CCN(CC(=O)[O-])CC1.[Gd+3] [[Gd(DOTA]^−]
